Experimental data reported in ChEMBL document CHEMBL5131375, “Recent Developments in the Use of Kinase Inhibitors for Management of Viral Infections” (J Med Chem, 2022).

Tests used:
Influenza A virus [1] = experiment: Antiviral activity against influenza A virus (A/WSN/1933) strain; type: functional, organism-based
Influenza A virus [2] = experiment: microbe, parasite or virus in culture; type: functional, organism-based; settings: A/ck/Yamaguchi/7/2004 (H5N10)
Influenza A virus [3] = experiment: microbe, parasite or virus in culture; type: functional, organism-based; settings: A/Anhui/1/2013 (H7N9)
Influenza A virus [4] = experiment: microbe, parasite or virus in culture; type: functional, organism-based; settings: H3N2
Influenza A virus [5] = experiment: microbe, parasite or virus in culture; type: functional, organism-based; settings: H7N9
Influenza A virus [6] = experiment: microbe, parasite or virus in culture; type: functional, organism-based; settings: H5N1
[7] = target: Tyrosine-protein kinase JAK2 (Homo sapiens, UniProt O60674); settings: dose 50.0 nM
in vitro [8] = settings: dog
Human betaherpesvirus 5 [9] = experiment: microbe, parasite or virus in culture; type: functional, organism-based
[10] = target: T1, Cyclin-dependent kinase 7 (Homo sapiens, UniProt P50613)
[11] = target: T1, Cyclin-dependent kinase 7; remark: listed apart in the source
in vitro [12] = settings: human, hff
Murine coronavirus [13] = experiment: Antiviral activity against mCoV-68 infected in african green monkey Vero cells incubated for 7 days by counting number of plaque by crystal violet staining method; type: functional, organism-based; settings: Murine coronavirus, 68, Vero, 168 h
Murine coronavirus [14] = experiment: Antiviral activity against MHV; type: functional, organism-based
[15] = Cytotoxicity against mouse NIH3T3 cells; type: toxicity, cell-based
[16] = Cytotoxicity against human MCF7 cells; type: toxicity, cell-based
[17] = target: Protein kinase C beta type (Homo sapiens, UniProt P05771); experiment: Inhibition of PKCbeta2 (unknown origin)
Influenza A virus [18] = experiment: Antiviral activity against influenza A virus assessed as log reduction of virus at 5 to 10 uM; type: functional; settings: dose 5-10 µM
Influenza B virus = experiment: Antiviral activity against influenza B virus assessed as log reduction of virus at 5 to 10 uM; type: functional; settings: dose 5-10 µM
[19] = Cytotoxicity against human HL-60 cells; type: toxicity, cell-based
[20] = target: Receptor tyrosine-protein kinase erbB-2 (Homo sapiens, UniProt P04626)
Huh7.5.1 = experiment: Cytotoxicity against human Huh-7.5.1 cells at 0.9 uM; type: toxicity, cell-based; settings: huh7.5.1, 0.9 µM
Dengue virus = experiment: microbe, parasite or virus in culture
[21] = target: Calcium/calmodulin-dependent protein kinase type II subunit gamma (Homo sapiens, UniProt Q13555); experiment: Inhibition of CAMK-II (unknown origin)
[22] = Cytotoxicity against HMC3 cells; type: toxicity, cell-based; settings: human
Human alphaherpesvirus 1 = experiment: microbe, parasite or virus in culture; type: functional, organism-based
[23] = target: Inhibitor of nuclear factor kappa-B kinase subunit epsilon (Homo sapiens, UniProt Q14164); experiment: Inhibition of IKK epsilon (unknown origin)
Human alphaherpesvirus 2 = experiment: Antiviral activity against HSV-2 assessed as reduction in virus titre at 10 uM relative to control; type: functional; parameters: scale not given: the % may be the effect or the level left
[24] = Cytotoxicity against human HCE cells; type: toxicity, cell-based
[25] = Cytotoxicity against HEK cells; type: toxicity, cell-based; settings: human
in vitro [26] = settings: human, HeLa cells
Measles morbillivirus = type: functional
in vitro [27] = settings: human, pbl
Influenza A virus [28] = experiment: microbe, parasite or virus in culture; settings: H1N1v, A549
Influenza A virus [29] = experiment: microbe, parasite or virus in culture; settings: A/FPV/Bratislava/79 (H7N7), MDCK-II
Influenza A virus [30] = experiment: microbe, parasite or virus in culture; settings: Lung, 24 h
Influenza A virus [31] = experiment: microbe, parasite or virus in culture; settings: RB1 H1N1
Influenza A virus [32] = experiment: microbe, parasite or virus in culture; settings: MB1 H5N1
Influenza A virus [33] = experiment: microbe, parasite or virus in culture; settings: GSB H5N1
Influenza A virus [34] = experiment: microbe, parasite or virus in culture; settings: FPV H7N7
Influenza A virus [35] = experiment: microbe, parasite or virus in culture; settings: H7N7
[36] = Cytotoxicity against human LU cells; type: toxicity, cell-based
Human betaherpesvirus 5 [37] = experiment: Antiviral activity against HCMV assessed as inhibition of DNA synthesis at 10 uM relative to control; type: functional

T1 sequence (P50613 whole entry): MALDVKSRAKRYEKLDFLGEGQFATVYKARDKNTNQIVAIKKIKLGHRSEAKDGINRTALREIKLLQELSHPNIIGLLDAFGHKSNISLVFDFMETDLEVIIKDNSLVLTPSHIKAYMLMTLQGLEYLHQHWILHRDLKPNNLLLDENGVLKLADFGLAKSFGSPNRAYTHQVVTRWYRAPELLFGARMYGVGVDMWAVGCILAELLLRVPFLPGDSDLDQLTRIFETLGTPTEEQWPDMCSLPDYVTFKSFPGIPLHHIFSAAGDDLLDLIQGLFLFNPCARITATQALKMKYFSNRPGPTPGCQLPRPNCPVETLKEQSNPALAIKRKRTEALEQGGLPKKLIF
Tyrosine-protein kinase JAK2, sequence (O60674 whole entry): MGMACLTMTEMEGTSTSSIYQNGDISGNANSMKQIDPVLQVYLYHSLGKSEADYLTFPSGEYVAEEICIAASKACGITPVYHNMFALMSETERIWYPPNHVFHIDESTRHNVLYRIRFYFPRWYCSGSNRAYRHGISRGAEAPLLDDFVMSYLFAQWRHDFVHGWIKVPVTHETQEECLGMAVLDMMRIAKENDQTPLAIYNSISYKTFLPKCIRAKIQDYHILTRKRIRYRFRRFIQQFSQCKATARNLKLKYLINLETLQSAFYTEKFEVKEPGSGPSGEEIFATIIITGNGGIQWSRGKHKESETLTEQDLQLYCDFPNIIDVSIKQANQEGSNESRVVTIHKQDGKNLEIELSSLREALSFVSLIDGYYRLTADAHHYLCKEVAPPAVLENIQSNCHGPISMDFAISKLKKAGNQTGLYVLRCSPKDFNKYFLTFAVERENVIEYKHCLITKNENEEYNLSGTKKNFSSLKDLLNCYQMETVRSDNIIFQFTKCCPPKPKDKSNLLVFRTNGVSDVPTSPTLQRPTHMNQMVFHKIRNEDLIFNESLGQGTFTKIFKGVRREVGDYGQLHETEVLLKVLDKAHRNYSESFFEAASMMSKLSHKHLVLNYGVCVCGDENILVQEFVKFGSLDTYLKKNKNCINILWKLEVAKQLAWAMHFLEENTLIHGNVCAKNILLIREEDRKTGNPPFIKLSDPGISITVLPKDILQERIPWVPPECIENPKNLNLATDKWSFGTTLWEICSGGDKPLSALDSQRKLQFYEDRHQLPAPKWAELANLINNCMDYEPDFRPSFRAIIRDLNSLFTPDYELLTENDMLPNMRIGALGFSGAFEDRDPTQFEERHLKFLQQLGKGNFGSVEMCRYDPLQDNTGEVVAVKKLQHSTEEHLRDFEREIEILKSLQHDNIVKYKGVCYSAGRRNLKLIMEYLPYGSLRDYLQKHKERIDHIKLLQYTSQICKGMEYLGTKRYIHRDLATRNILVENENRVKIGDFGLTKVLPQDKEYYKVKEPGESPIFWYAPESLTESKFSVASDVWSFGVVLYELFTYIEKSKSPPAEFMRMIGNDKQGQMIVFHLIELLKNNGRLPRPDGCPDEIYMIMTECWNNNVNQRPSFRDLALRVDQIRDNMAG
Protein kinase C beta type, sequence (P05771 whole entry): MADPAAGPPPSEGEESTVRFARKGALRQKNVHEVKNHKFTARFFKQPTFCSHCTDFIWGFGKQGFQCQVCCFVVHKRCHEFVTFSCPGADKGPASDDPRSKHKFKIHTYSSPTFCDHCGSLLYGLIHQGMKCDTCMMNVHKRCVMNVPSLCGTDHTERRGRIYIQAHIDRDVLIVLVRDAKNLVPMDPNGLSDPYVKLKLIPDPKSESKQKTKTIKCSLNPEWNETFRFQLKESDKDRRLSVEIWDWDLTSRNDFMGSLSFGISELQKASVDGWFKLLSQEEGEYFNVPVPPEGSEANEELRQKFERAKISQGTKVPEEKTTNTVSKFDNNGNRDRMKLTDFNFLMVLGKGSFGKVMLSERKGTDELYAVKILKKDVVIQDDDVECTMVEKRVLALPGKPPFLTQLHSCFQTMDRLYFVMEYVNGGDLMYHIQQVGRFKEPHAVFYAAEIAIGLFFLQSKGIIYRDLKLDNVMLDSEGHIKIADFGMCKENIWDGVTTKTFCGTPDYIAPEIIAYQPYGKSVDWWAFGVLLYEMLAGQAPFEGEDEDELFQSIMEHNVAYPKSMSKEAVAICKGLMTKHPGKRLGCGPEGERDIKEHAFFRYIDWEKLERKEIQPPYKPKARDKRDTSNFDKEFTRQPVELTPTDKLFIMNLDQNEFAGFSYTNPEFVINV
Inhibitor of nuclear factor kappa-B kinase subunit epsilon, sequence (Q14164 whole entry): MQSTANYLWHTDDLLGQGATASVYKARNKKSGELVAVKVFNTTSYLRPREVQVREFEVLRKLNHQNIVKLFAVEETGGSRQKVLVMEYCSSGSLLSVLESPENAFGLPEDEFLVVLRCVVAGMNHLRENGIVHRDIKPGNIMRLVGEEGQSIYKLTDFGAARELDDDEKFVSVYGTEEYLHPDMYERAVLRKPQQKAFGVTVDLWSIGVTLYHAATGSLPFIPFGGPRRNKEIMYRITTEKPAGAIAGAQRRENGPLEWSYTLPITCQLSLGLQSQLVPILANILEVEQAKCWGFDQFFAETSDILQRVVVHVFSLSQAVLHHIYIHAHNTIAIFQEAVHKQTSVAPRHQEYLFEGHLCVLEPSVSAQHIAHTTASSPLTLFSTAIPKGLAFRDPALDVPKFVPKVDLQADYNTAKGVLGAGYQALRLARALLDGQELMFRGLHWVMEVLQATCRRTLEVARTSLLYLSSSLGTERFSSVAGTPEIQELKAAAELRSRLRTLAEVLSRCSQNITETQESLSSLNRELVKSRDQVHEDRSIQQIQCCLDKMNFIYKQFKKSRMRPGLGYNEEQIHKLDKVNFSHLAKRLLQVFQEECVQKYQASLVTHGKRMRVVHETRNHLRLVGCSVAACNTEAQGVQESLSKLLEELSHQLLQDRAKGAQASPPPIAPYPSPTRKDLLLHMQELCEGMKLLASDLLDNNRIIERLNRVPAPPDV
Receptor tyrosine-protein kinase erbB-2, sequence (P04626 whole entry): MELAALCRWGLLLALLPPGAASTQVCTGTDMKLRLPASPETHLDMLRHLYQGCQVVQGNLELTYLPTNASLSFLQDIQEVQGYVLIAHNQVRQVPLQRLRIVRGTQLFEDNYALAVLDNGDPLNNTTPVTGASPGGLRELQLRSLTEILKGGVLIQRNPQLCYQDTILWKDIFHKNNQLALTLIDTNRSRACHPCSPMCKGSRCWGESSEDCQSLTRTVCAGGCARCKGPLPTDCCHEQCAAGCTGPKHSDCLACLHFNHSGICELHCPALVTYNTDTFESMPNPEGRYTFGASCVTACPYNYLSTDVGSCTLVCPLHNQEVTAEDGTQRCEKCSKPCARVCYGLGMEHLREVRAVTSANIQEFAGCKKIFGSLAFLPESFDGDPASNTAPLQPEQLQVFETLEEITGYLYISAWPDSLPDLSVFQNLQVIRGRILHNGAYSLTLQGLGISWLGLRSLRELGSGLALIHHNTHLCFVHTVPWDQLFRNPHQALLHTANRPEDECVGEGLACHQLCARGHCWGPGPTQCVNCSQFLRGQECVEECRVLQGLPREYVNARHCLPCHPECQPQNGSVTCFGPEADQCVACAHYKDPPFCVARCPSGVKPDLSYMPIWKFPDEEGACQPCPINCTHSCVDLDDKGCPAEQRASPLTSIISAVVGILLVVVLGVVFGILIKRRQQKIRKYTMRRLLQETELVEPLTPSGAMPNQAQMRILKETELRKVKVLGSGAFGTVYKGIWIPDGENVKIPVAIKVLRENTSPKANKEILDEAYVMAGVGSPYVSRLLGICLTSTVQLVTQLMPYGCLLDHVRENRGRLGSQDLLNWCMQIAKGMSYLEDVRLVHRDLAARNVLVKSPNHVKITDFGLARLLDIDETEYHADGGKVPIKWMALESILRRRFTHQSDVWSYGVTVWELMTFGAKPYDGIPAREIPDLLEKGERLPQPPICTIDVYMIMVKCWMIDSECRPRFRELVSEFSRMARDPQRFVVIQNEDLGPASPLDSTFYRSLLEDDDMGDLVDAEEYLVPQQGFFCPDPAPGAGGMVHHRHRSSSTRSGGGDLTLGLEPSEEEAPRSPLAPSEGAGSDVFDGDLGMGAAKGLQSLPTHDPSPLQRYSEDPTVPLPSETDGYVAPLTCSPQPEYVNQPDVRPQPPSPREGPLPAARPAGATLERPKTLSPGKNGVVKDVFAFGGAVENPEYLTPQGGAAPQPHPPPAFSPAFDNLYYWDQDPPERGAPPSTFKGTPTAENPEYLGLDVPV
Calcium/calmodulin-dependent protein kinase type II subunit gamma, sequence (Q13555 whole entry): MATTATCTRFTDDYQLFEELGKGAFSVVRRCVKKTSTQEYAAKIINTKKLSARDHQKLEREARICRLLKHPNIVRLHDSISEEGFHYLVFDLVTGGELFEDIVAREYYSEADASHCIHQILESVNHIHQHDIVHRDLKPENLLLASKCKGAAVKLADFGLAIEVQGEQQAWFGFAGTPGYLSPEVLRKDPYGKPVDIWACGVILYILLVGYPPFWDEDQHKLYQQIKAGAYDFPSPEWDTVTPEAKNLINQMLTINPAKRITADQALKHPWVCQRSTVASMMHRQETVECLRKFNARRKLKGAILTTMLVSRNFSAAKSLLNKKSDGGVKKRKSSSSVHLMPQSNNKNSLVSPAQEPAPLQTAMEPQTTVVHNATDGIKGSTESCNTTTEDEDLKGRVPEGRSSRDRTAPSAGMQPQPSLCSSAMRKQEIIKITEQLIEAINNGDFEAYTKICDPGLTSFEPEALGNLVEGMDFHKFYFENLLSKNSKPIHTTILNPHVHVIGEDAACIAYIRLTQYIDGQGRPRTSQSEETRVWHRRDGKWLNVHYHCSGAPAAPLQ

With `CC1=C(C)C2NC(=O)C(CN3C(=S)N([C@@H](C)c4ccccc4)C(=O)C3C3CC3)C=C2C=C1` (stereo not given in full) as the compound, how does the IC50 (Influenza A virus [1]) read?
The IC50 was 0.012 µM.

What about the IC50 (Influenza A virus [2]) of the same compound?
Its IC50 is 0.02 µM.

What about the IC50 (Influenza A virus [3]) of the same compound?
Its IC50 is 0.02 µM.

What about the EC50 (Influenza A virus [4]) of the same compound?
The EC50 was 0.02 µM.

And the EC50 (Influenza A virus [5])?
The EC50 was 20 µM.

What about the EC50 (Influenza A virus [6]) of the same compound?
The EC50 was 20 µM.

And the inhibition [7]?
Its inhibition is 61%.

And the CC50 (in vitro [8]; MDCK cells)?
The CC50 was 3.8 µM.

Which results are given for `CC(C)c1cnn2c(NCc3ccccc3-n3cccn3)nc(OC3CCCNC3)nc12` (stereo not given)?
EC50 (Human betaherpesvirus 5 [9]): 0.024 µM; IC50 [10]: < 0.005 µM; IC50 [11]: < 0.005 µM; CC50 (in vitro [12]): 6.2 µM

With `CC(C)=CCC[C@](C)(O)C1CC[C@]2(C)[C@@H]1[C@H](O)C[C@@H]1[C@@]3(C)CC[C@H](O[C@@H]4O[C@H](CO)[C@@H](O)[C@H](O)[C@H]4O[C@@H]4O[C@H](CO)[C@@H](O)[C@H](O)[C@H]4O)C(C)(C)[C@@H]3CC[C@]12C` (stereo not given in full) as the compound, how does the IC50 (Murine coronavirus [13]) read?
The IC50 was 10 µM.

What about the IC50 (Murine coronavirus [14]) of the same compound?
The IC50 was 10 µM.

What about the CC50 [15] of the same compound?
Its CC50 is > 50 µM.

Which results are given for `O=C1NC(=O)C(c2c[nH]c3ccccc23)=C1c1c[nH]c2ccccc12` [RO-316233]?
CC50 [16]: > 8 µM; IC50 [17]: 0.016 µM; log(activity) (Influenza A virus [18]): 1; log(activity) (Influenza B virus): 1; CC50 [19]: > 8 µM

For `CCN(CC)CC1CCN(c2ncc3ncnc(Nc4ccc(F)c(Cl)c4)c3n2)CC1`, which IC50 [20] is on record?
Its IC50 is 0.29 µM.

What about the Activity (Huh7.5.1) of the same compound?
Its Activity is “Non-Toxic”.

And the IC50 (Dengue virus)?
The IC50 was 0.9 µM.

With `COc1ccc(S(=O)(=O)N(CCCC(=O)C2CCCCCC2)c2ccccc2)cc1` as the compound, how does the IC50 [21] read?
Its IC50 is 0.79 µM.

What about the CC50 [22] of the same compound?
The CC50 was > 12.5 µM.

For `O=C(NCCCNc1nc(Nc2cccc(NC(=O)N3CCCC3)c2)ncc1I)c1cccs1` [BX-795], which EC50 (Human alphaherpesvirus 1) is on record?
Its EC50 is 10 µM.

What about the IC50 [23] of the same compound?
Its IC50 is 0.041 µM.

And the Activity (Human alphaherpesvirus 2)?
The Activity was >90%.

And the CC50 [24]?
The CC50 was 46 µM.

What about the CC50 [25] of the same compound?
The CC50 was 46 µM.

And the CC50 (in vitro [26])?
The CC50 was 46 µM.

With `Oc1ccc(Nc2nc(-c3ccc(Cl)cc3)cs2)cc1` as the compound, how does the “inhibition (INH)” value (Measles morbillivirus) read?
The value was 70%.

And the CC50 (in vitro [27])?
The CC50 was > 5 µM.

With `N#CC(=C(/N)Sc1ccccc1N)/C(C#N)=C(\N)Sc1ccccc1N` as the compound, how does the CC50 (in vitro [8]; mdck) read?
The CC50 was > 50 µM.

And the EC50 (Influenza A virus [28])?
The EC50 was 1.2 µM.

What about the EC50 (Influenza A virus [29]) of the same compound?
The EC50 was 74.7 µM.

What about the EC50 (Influenza A virus [30]) of the same compound?
Its EC50 is 620 µM.

And the IC50 (Dengue virus)?
Its IC50 is 14.2 µM.

What about the EC50 (Influenza A virus [31]) of the same compound?
The EC50 was 1.21 µM.

What about the EC50 (Influenza A virus [32]) of the same compound?
The EC50 was 4.43 µM.

And the EC50 (Influenza A virus [33])?
Its EC50 is 36.6 µM.

And the EC50 (Influenza A virus [34])?
Its EC50 is 82.7 µM.

What about the EC50 (Influenza A virus [35]) of the same compound?
Its EC50 is 620 µM.

For `Cn1cnc2c(NCc3ccccc3)nc(NCCO)nc21` [OLOMOUCINE], which CC50 [36] is on record?
Its CC50 is > 15 µM.

What about the inhibition at 10 µM (Human betaherpesvirus 5 [37]) of the same compound?
Its inhibition at 10 µM is 50%.
